Experimental findings from ChEMBL document CHEMBL2331127, “3D-QSAR and docking studies of pentacycloundecylamines at the sigma-1 (σ1) receptor” (Bioorg Med Chem Lett, 2013) are described below.

Experiment [1] concerns the target Sigma non-opioid intracellular receptor 1 (Cavia porcellus, UniProt Q60492). As to the kind of experiment: Displacement of [3H](+)-pentazocine from sigma-1 receptor in guinea pig brain. A general note: Loss of bound radioactivity is the signal in a displacement assay; it reports binding, not function.
Experiment [2] deals with Sigma non-opioid intracellular receptor 1 (Rattus norvegicus, UniProt Q9R0C9). As to the kind of experiment: Displacement of [3H](+)-pentazocine from sigma-1 receptor in rat liver homogenate. The experiment is classed as tissue-based.
Sequence of Sigma non-opioid intracellular receptor 1 (Rattus norvegicus, UniProt Q9R0C9) (Q9R0C9 whole entry): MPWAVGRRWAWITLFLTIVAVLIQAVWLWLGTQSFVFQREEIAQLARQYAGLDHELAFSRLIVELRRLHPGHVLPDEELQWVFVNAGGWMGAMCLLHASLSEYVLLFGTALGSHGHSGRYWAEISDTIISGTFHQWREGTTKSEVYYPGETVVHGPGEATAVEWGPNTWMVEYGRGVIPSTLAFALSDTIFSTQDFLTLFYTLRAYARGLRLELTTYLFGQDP

Each structure is given as a SMILES string. pIC50, pKi: −log10 of the molar value.

As usually defined, the pKi is the Ki on a negative log10 scale, so that one unit is a factor of ten. High values mean a low Ki, low ones a high Ki. What is called pIC50 is −log10 of the IC50, conventionally taken in molar units. Read a low pIC50 as a high IC50.

Sequence of Sigma non-opioid intracellular receptor 1 (Cavia porcellus, UniProt Q60492) (Q60492 whole entry): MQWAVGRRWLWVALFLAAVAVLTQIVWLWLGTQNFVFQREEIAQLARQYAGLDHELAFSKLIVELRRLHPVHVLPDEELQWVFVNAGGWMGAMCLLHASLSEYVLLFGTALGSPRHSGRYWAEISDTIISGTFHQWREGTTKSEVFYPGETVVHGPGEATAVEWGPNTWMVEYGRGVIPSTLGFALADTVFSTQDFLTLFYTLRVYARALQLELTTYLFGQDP

Turning to `OC12C3C4CC5C6C4C1C6C(C53)N2Cc1cccc(Cl)c1` (stereo not drawn), in experiment [1], the pKi was 6.73. As to `OC12C3C4CC5C6C4C1C6C(C53)N2Cc1ccc(F)c(F)c1` (stereo not drawn), in experiment [1], the pKi was 6.70.

`OC12C3C4CC5C6C4C1C6C(C53)N2CCCc1ccccc1` (stereo not drawn) showed a pKi in experiment [1] of 7.68. Consider `OC12C3C4CC5C6C4C1C6C(C53)N2CCc1cccc(F)c1` (stereo not drawn), for which the pKi in experiment [1] was 8.00.

In turn, `O=[N+]([O-])c1cccc(CN2C3C4C5CC6C7C5C3C7C2(O)C64)c1` (stereo not drawn) showed a pKi in experiment [1] of 5.96. On the same count and under the same terms, with `OC12C3C4CC5C6C4C1C6C(C53)N2Cc1ccc(Br)cc1` (stereo not drawn) the figure was 7.07. Regarding `OC12C3C4CC5C6C4C1C6C(C53)N2Cc1cccc(Br)c1` (stereo not drawn), in experiment [1], the pKi was 6.68. In experiment [2], `c1ccc(CCNC23OC4C5C6CC(C7C6C4C72)C53)cc1` (stereo not drawn) gave a pIC50 of 5.81. With `OC12C3C4CC5C6C4C1C6C(C53)N2Cc1cccc(I)c1` (stereo not drawn), the pKi in experiment [1] is 6.77.

In turn, `OC12C3C4CC5C6C4C1C6C(C53)N2Cc1ccc(I)cc1` (stereo not drawn) gave a pKi in experiment [1] of 7.09. On the same count and under the same terms, with `OC12C3C4CC5C6C4C1C6C(C53)N2Cc1cccc(C(F)(F)F)c1` (stereo not drawn) the figure was 6.57; with `Cc1cccc(CN2C3C4C5CC6C7C5C3C7C2(O)C64)c1` (stereo not drawn), 7.01; with `OC12C3C4CC5C6C4C1C6C(C53)N2CCc1cccc(Cl)c1` (stereo not drawn), 7.68. `COc1ccc(CN2C3C4C5CC6C7C5C3C7C2(O)C64)cc1` (stereo not drawn) had a negative-log Ki (pKi) in experiment [1] of 6.99. In turn, `OC12C3C4CC5C6C4C1C6C(C53)N2Cc1ccc(F)cc1` (stereo not drawn) gave a pKi in experiment [1] of 6.97.

In experiment [1], `OC12C3C4CC5C6C4C1C6C(C53)N2CCc1ccc(Br)cc1` (stereo not drawn) had a pKi of 8.00. Still for that read-out and setting: with `OC12C3C4CC5C6C4C1C6C(C53)N2Cc1ccccc1F` (stereo not drawn) the figure was 6.74; with `OC12C3C4CC5C6C4C1C6C(C53)N2CCc1ccc(Cl)c(Cl)c1` (stereo not drawn), 8.00. In experiment [1], `OC12C3C4CC5C6C4C1C6C(C53)N2CCCCc1ccccc1` (stereo not drawn) had a pKi of 8.05. On to `OC12C3C4CC5C6C4C1C6C(C53)N2Cc1cccc(F)c1` (stereo not drawn), for which the pKi in experiment [1] was 6.82.

The compound `OC12C3C4CC5C6C4C1C6C(C53)N2Cc1ccccc1` (stereo not drawn) gave a pKi in experiment [1] of 6.99.

`OC12C3C4CC5C6C4C1C6C(C53)N2CCc1ccccc1` (stereo not drawn) showed a pKi in experiment [1] of 7.70. This pKi is 0.71 log units higher than that of the compound before. As for `c1ccc(CNC23OC4C5C6CC(C7C6C4C72)C53)cc1` (stereo not drawn), the pIC50 in experiment [2] was 5.75.
